Experimental data as given in US20070104648A1, “Compositions, methods of preparing amino acids, and nuclear magnetic resonance spectroscopy” (Glyconix Corporation, priority 2005, published 2007).

assay: Binding constants (pK) of L-p-BPA carbohydrate/polyol complexes by 1H-NMR integration of aromatic protons; type: physicochemical; settings: 1H-NMR in D2O buffered to physiological pH (7.4); free L-p-BPA vs complex aromatic protons; three concentrations
Excerpt: For fructose and sorbose, or when a large excess of another carbohydrate or polyol is used, the p-BPA remains in solution at a pH of 7.4, and approximately 90% of the p-BPA is present as its sodium carboxylate, with the remainder as its free acid. A large excess of carbohydrate or polyol is preferred when pK is small; however, for complexes with a pK>about 3 a large excess in not need. The ratio of free p-BPA to p-BPA:carbohydrate complex can be determined by integration of the aromatic protons resonances (p-BPA, 7.73 and 7.33 ppm; p-BPA-carbohydrate complex, 7.5 and 7.2 ppm) in the 1H-NMR spectrum using D2O buffered to physiological pH as the solvent. For example, L-p-boronophenylalanine fructose complex has a pK of 3.2 while the meso-erythitol complex has a pK of 1.0, the threitol complex has a pK of 1.3, the adonitol complex has a pK of 1.7, the arabitol complex has a pK of 2.3, the rhamnitol complex has a pK of 2.3, the xylitol complex has a pK of 2.5, the talitol complex has pK of 2.4, the dulcitol complex has a pK of 2.7, the mannitol complex has a pK of 2.7, the 1-aminodulcitol complex has a pK of 2.9, the sorbitol complex has a pK of 3.2, the 1-aminosorbitol complex has a pK of 3.4, the isomaltitol complex has a pK of 3.4, the cellobiitol complex has a pK of 3.5, the lactitol complex has a pK of 3.7, the maltitol complex has a pK of 3.9, the volemitol complex has a pK of 2.9, the perseitol complex has a pK of 3.1, the glucoheptitol complex has a pK of 3.9, and the alpha,alpha-glucooctitol complex has a pK of 4.1.
L-p-Boronophenylalanine-polyol or -aminopolyol complexes are prepared by combining 0.5 mM of alpha-deuterated or alpha-hydrogenated L-p-BPA with between 1.00 and 1.05 equivalents of complexing agent (with the exception of poorly complexing polyols and carbohydrates, in which up to 4.3 equivalents of polyol or carbohydrates are used) in 2 mL of water. One equivalent of NaOH (1 mL of 0.5 M) is then added and the slurry gently warmed if needed in order to dissolve all solids. The pH is then monitored and reduced to between 7.5 and 7.3 by the addition of Dowex50WX4-50 ion exchange resin. The clear solution is then passed through a 0.2 μm syringe filter and then freeze-dried to constant weight. ^1H and ^13C NMR spectra are recorded on a GE 300 MHz FT-NMR spectrometer with D2O buffered at 7.4 [Bates, R G, Bower, V E. 1956. Alkaline solutions for pH control. Anal. Chem. 28:1322-1324] as the solvent. The binding constants are calculated at three different concentrations by integration of the free L-p-BPA aromatic protons (7.73 and 7.33 ppm) compared with those of the L-p-BPA complexes (7.5 and 7.2 ppm). Spectra of the 1:1 complexes are reported.

| Molecule | pK of the p-BPA:carbohydrate/polyol complex (binding constant) |
| --- | --- |
| L-p-boronophenylalanine fructose complex [reference compound] | 3.2 |
| L-p-boronophenylalanine-aminodulcitol complex [1-aminodulcitol complex] | 2.9 |
| L-p-boronophenylalanine-α-glucoheptitol complex | 3.9 |
| L-p-boronophenylalanine-mannitol complex | 2.7 |
| L-p-boronophenylalanine-sorbitol complex | 3.2 |
| L-p-boronophenylalanine-α,α-glucooctitol complex [alpha,alpha-glucooctitol complex] | 4.1 |
| L-p-boronophenylalanine-maltitol complex | 3.9 |

Second part, the molecule after the results:

| pK of the p-BPA:carbohydrate/polyol complex (binding constant) | Molecule |
| --- | --- |
| 3.4 | L-p-boronophenylalanine-isomaltitol complex |
| 3.1 | L-p-boronophenylalanine-persietol complex [perseitol complex] |
| 3.5 | L-p-boronophenylalanine-cellobiitol complex |
| 2.5 | L-p-boronophenylalanine-xylitol complex |
| 2.3 | L-p-boronophenylalanine-rhamnitol complex |
| 3.4 | L-p-boronophenylalanine-aminosorbitol complex [1-aminosorbitol complex] |
| 2.7 | L-p-boronophenylalanine-dulcitol complex |
| 2.9 | L-p-boronophenylalanine-volemitol complex |
| 3.7 | L-p-boronophenylalanine-lactitol complex |

assay: not given; settings: physiological pH; cited from earlier work

| Molecule | water solubility |
| --- | --- |
| N[C@@H](Cc1ccc(B(O)O)cc1)C(=O)O [BPA, para-boronophenylalanine] | poor water solubility |
